From the NIST ThermoML archive (doi:10.1021/je400917j)
Where “and” joins values, the source holds several entries; their conditions need not be identical. Equal values may be shown once.

Tests used:
[1] = 101 kPa, Liquid; for mass density: Vibrating tube method
[2] = xn = mol fraction of the nth substance listed; conditions: 101 kPa, Liquid; for mass density: Vibrating tube method

CCCCC(C)O (stereo not drawn) [2-hexanol]
[1]
Conditions	mass density [kg/m3]	viscosity [mPa·s]
298.15 K	810.1	4.1
303.15 K	806.1	3.41
308.15 K	802.1	2.82
313.15 K	798	2.22

CC(=O)N(C)C [N,N-dimethylethanamide] + CCCCC(C)O
[2], x1 = 1
Conditions	mass density [kg/m3]	viscosity [mPa·s]
298.15 K	936.5	0.94
303.15 K	932	0.87
308.15 K	927.8	0.8
313.15 K	923.5	0.75

CC(=O)N(C)C [N,N-dimethylethanamide]
[1]
Conditions	mass density [kg/m3]	viscosity
298.15 K	936.5	0.94 mPa·s
303.15 K	932	0.87 mPa·s
308.15 K	927.8	0.82 mPa·s and 0.8 mPa·s
313.15 K	923.5	0.75 mPa·s

CCCC(C)O (stereo not drawn) [pentan-2-ol]
[1]
Conditions	mass density [kg/m3]	viscosity [mPa·s]
298.15 K	805.4	3.5
303.15 K	800.9	2.83
308.15 K	796.9	2.35
313.15 K	792.6	1.98

CCCCCC(C)O (stereo not drawn) [2-heptanol]
[1]
Conditions	mass density [kg/m3]	viscosity [mPa·s]
298.15 K	813.2	5.3
303.15 K	809.5	4.48
308.15 K	805.7	3.68
313.15 K	801.5	2.96

CC(=O)N(C)C [N,N-dimethylethanamide] + CCCCCC(C)O
[2], x1 = 1
Conditions	mass density [kg/m3]	viscosity [mPa·s]
298.15 K	936.5	0.94
303.15 K	932	0.87
308.15 K	927.8	0.8
313.15 K	923.5	0.75

CC(=O)N(C)C [N,N-dimethylethanamide] + CCCC(C)O
[2], x1 = 1
Conditions	mass density [kg/m3]	viscosity [mPa·s]
298.15 K	936.5	0.94
303.15 K	932	0.87
308.15 K	927.8	0.8
313.15 K	923.5	0.75

CCC(C)O (stereo not drawn) [butan-2-ol]
[1]
Conditions	mass density [kg/m3]	viscosity [mPa·s]
298.15 K	803	3.1
303.15 K	798.9	2.53
308.15 K	795	2.13
313.15 K	790.2	1.8

CCC(C)O (stereo not drawn) [butan-2-ol] + CC(=O)N(C)C
[2], x2 = 0
Conditions	mass density [kg/m3]	viscosity [mPa·s]
298.15 K	803	3.1
303.15 K	798.9	2.53
308.15 K	795	2.13
313.15 K	790.2	1.8

CC(C)O [propan-2-ol] + CC(=O)N(C)C
[2], x2 = 0
Conditions	mass density [kg/m3]	viscosity [mPa·s]
298.15 K	781.1	2.05
303.15 K	776.8	1.79
308.15 K	772.4	1.56
313.15 K	767.8	1.35

CC(C)O [propan-2-ol]
[1]
Conditions	mass density [kg/m3]	viscosity [mPa·s]
298.15 K	781.1	2.05
303.15 K	776.8	1.79
308.15 K	772.4	1.56
313.15 K	767.8	1.35
